Earlier results as cited in patent US7041634B2, “Method of inhibiting immune system destruction of transplanted viable cells” (Emory University, priority 1995, dated 2006).

Tested on: encapsulated hamster islet xenografts in NOD mice
Conditions: NOD recipients

N=C(N)NCCCCCCC(=O)NC(O)C(=O)NCCCCNCCCN (stereo not shown) [deoxyspergualin]
prolongation of encapsulated islet xenografts: significant prolongation
